# Publication PMC3783636 (ACS chemical biology, 2013)
# B1: HD5ox: oxidized form of HD5 with three disulfide bonds (peptide, UniProt Q01523 20-94, looked up)
# Defensin alpha 5: ESLQERADEATTQKQSGEDNQDLAISFAGNGLSALRTSGSQARATCYCRTGRCATRESLSGVCEISGRLYRLCCR
# modifications: Defensin-5 oxidized, three disulfides
# B2: HD5: 32-residue cysteine-rich host-defense peptide; the redox couple HD5ox/HD5red (peptide, UniProt Q01523 20-94, looked up)
# Defensin alpha 5: B1 Defensin alpha 5
# modifications: Defensin-5
# Assays:
# [1] = known Zn(II) affinity; ref Supporting Information; cited from earlier work
# [2] = tested on: trypsin; details: oxidized, triple-stranded β-sheet fold; cited from earlier work
# [3] = Midpoint potential determination in DTT redox buffers; details: pH 7.0, 75 mM HEPES, DTTred/DTTox redox buffers −230 to −290 mV, 25 µM HD5red or HD5ox, anaerobic, 20 h, rt (ca. 22 °C), HPLC peak areas, global fit
Molecule,Kd for Zn(II) of the sensor (range in words) [1],also measured
O=C(O)c1ccccc1NN=C(N=Nc1cc(S(=O)(=O)O)ccc1O)c1ccccc1 [Zincon],micromolar,
FluoZin-1 [FZ1],micromolar,
Zinpyr-4 [ZP4],mid-picomolar,
B1,,stability to trypsin [2]: resistant to degradation
B2,,midpoint potential [3]: −257 mV
